For orientation: IC50 means the concentration that inhibits the measured activity by half. Low readings indicate greater potency in that assay, high ones weaker potency in that assay.

Here are results for one compound from ChEMBL document CHEMBL1141155, “The protein farnesyltransferase inhibitor Tipifarnib as a new lead for the development of drugs against Chagas disease” (J Med Chem, 2005).

Test [1] in a line: Inhibitory concentration against Protein farnesyltransferase of Trypanosoma cruzi.
Another test deals with Trypanosoma cruzi. Description: Inhibition of Trypanosoma cruzi growth. As to conditions: read-out: ED50 (the source's name). Format: functional.

Compound `Cn1cncc1[C@@](N)(c1ccc(Cl)cc1)c1ccc2c(c1)c(-c1cccc(Cl)c1)cc(=O)n2C` [TIPIFARNIB] yielded an IC50 in test [1] of about 75 nM. Also, the EC50 in the test with Trypanosoma cruzi was found to be 4 nM.
